This note sets out measurements from ChEMBL document CHEMBL1201862, “PubChem BioAssay data set” (2004).

Each structure is given as a SMILES string. Calls of active or inactive are those of the source. Where only a bound is given, the exact number is not on record here.

One assay concerns the target T1, Insulin-degrading enzyme (Homo sapiens, UniProt P14735).
T1 sequence (P14735 whole entry): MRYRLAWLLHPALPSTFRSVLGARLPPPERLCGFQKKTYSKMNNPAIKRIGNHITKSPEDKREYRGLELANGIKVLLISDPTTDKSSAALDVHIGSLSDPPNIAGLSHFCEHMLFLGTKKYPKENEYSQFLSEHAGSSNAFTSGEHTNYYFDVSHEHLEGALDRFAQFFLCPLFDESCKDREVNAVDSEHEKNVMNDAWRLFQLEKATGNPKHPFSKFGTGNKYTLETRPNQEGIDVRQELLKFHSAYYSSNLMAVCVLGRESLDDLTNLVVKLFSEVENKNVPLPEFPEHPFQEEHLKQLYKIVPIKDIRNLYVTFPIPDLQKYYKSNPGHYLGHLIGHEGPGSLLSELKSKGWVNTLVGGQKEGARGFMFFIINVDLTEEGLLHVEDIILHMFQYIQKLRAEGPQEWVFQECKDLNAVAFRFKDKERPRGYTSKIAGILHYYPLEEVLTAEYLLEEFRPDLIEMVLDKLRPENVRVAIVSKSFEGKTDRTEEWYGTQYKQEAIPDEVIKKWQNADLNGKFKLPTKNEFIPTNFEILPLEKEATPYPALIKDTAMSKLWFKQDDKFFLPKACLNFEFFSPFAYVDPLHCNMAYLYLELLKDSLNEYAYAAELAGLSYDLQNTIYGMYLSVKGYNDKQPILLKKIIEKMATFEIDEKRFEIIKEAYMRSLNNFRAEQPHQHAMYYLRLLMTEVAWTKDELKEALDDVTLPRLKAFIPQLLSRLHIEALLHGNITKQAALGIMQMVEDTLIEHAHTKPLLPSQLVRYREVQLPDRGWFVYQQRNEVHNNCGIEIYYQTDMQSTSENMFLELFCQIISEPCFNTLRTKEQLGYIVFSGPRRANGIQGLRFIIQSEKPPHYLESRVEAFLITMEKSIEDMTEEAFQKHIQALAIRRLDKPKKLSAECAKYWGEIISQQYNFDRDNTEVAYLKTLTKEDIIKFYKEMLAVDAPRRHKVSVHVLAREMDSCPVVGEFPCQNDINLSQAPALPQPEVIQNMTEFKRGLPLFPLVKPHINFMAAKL
In words: activators of recombinant IDE enzyme, dose response, counter-screen for IDE activator project, biochemical, fluorescence polarization (AID 588681). Background: The purpose of a counterscreen is to sort out artefacts and off-target activity.

Another assay deals with T2, Protein RecA (Mycobacterium tuberculosis, UniProt P9WHJ3).
T2 sequence (P9WHJ3 whole entry): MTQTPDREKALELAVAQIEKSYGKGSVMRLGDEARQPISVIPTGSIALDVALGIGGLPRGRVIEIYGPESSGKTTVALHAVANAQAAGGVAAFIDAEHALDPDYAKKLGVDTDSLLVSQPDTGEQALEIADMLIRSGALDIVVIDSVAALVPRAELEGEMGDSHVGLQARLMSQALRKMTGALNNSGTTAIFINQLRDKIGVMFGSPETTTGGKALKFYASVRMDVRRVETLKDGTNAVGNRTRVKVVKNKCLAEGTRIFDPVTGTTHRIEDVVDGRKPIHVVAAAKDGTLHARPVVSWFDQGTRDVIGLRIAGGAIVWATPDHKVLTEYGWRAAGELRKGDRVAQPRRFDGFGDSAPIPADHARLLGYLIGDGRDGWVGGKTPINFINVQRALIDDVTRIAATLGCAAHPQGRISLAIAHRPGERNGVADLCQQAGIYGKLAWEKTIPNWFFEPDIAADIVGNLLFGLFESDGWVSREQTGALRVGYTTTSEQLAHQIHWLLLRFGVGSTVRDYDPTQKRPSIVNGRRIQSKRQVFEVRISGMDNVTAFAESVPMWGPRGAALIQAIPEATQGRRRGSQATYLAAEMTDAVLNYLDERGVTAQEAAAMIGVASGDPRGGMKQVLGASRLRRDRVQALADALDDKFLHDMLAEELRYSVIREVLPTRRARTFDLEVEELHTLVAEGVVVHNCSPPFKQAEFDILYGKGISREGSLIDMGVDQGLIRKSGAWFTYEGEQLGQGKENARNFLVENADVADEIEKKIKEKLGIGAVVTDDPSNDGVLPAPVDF
In words: Fluorescence Cell-Free Homogeneous Dose Retest to Identify Inhibitors of RecA-Intein Splicing Activity. [Related pubchem assays (depositor defined):AID2097, AID2223, AID489010, AID492950]. The class given is functional.

A further assay deals with HEK293. In words: HEK cell cytotoxicity by LDH release, dose response, cytotoxicity control for IDE activator project, fluorescence, HEK cells (AID 588440).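 Note: cytotoxicity by LDH release measuring loss of membrane integrity.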 The class given is functional, cell-based. Conditions: Homo sapiens. A general note: LDH in the medium is a marker of cell lysis.
The nature of assay [1]: A549 cell cytotoxicity, dose response, cytotoxicity control, plate reader, cherry-pick, antagonist series (AID 743412). The assay is classed as functional, cell-based.
A short description of assay [2]: LGR2 antagonists, dose response, cell-based, HEK293, CRE-luciferase reporter, cherry pick, set 2 (AID 743343).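 Note: transfected cells were stimulated with diluted bursicon conditioned medium after compound addition.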 The assay is classed as functional.
The nature of assay [3]: HEK293 cell cytotoxicity, dose response, cytotoxicity control, plate reader, cherry-picked samples (AID 743446). The class given is functional, cell-based.

What is called EC50 is the concentration at which the effect is half-maximal. What is called IC50 is the concentration needed to halve the response being measured. What is called AC50 is the midpoint of the concentration-response curve, whichever way the signal moves. As for `Cl.N=c1n(Cc2ccccc2)c2ccccc2n1CC(O)COc1ccc(Cl)cc1Cl` (stereo unspecified), the EC50 at Insulin-degrading enzyme is 40.1 µM (inactive); at Protein RecA, > 380 µM (inconclusive). The concentration for half-maximal inhibition (IC50) in the assay with HEK293 was 8.27 µM (active). The values for the half-maximal activity concentration (AC50) in assay [1], in assay [2] and in assay [3] were 6.26 µM (active), 23.1 µM (active) and 12.7 µM (active), respectively.
